Data published in PMC12495443, “Developing inhibitors of the guanosine triphosphate hydrolysis accelerating activity of Regulator of G protein Signaling-14 [drawing 1]” (The Journal of Biological Chemistry, 2025).
Changes are numbered by the printed parent chain. Entries after “also recorded” stand apart in the source; their conditions may differ. Read-outs that look alike come from different tables or passages of the source.

Experiments:
[1] = biological target: T1, cysteine-less RGS14 RGS-box protein (Homo sapiens, UniProt O43566, C100S/C183S); assay: Transcreener GDP RGScreen assay with cysteine-less RGS14 RGS-box; assay type: biochemical; conditions: compared with wild-type RGS14 RGS-box
T1 construct: human RGS14 RGS-box (aa 46–195 of UniProt O43566); host or cells: E. coli
T1 sequence (O43566 46-195 C100S/C183S): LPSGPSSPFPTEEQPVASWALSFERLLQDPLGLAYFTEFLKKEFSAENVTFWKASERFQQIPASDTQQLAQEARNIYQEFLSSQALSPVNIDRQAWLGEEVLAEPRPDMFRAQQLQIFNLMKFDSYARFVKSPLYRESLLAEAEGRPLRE
Excerpt: Given the earlier experience with screening hit CCG-4986 being a covalent modifier of RGS4 cysteine residues ([35]), we sought to exclude protein-thiol reactivity as a potential mechanism of action of the active compounds derived from the AtomNet virtual screening effort ([55]) and SAR campaign follow-ups. To address this possibility and screen out thiol-reactive hits, cysteine-lacking versions of recombinant proteins spanning the RGS-boxes of RGS14 and RGS12 were purified from E. coli cultures.
Reagents and protocols for the fluorescence anisotropy-based Transcreener GDP RGScreen assay using a rate-altered, double point-mutant, recombinant Gαi1 protein have been extensively described previously ([43], [44]); reactions were always performed so that total GTP converted over the time course was consistently less than 10% of reaction maximum input. Specific methods for its application in assessing RGS14 and RGS12 GAP activity are summarized as follows. Open-reading frames (ORFs) encoding wild-type versions of the human RGS14 RGS-box (aa 46–195 of UniProt O43566) and human RGS12 RGS-box (aa 695–843 of UniProt O14924) were each sub-cloned in-frame with an N-terminal hexahistidine (His6) expression tag in the plasmid pET30a, expressed in E. coli cultures, and then purified by nickel-nitriloacetate (Ni-NTA) and size-exclusion (Superdex 200) column chromatographies by GenScript using previously described methods ([35]). […]
Supplementary Figure S5. […] (A,B) Recombinant, cysteine residue-lacking (“-cys”) RGS14 RGS-box protein (panel A) and cysteine residue-lacking RGS12 RGS-box protein ([…]) were both observed, in a concentration-dependent fashion (indicated in ng/µL by color), to increase steady-state GDP production by 0.5 ng/µL Gai1(DM) protein in a 20 µL final reaction volume, as measured by the Transcreener® GDP-detection RGScreen™ assay and detected by the change in polarization (ΔmP) at each indicated time point (“enz” = Gai1(DM) protein a.k.a. […]

[2] = biological target: T2, human RGS14 RGS-box (wild-type) (Homo sapiens, UniProt O43566); assay: Transcreener GDP RGScreen fluorescence polarization assay of RGS14 RGS-box GAP activity on Gαi1(DM); assay type: biochemical; conditions: for IC50: Transcreener GDP RGScreen; for Ratio (RGS14 pIC50 / RGS12 pIC50): values > 1.0 reflect RGS14 selectivity
T2 construct: human RGS14 RGS-box (aa 46–195 of UniProt O43566); host or cells: E. coli
T2 sequence (O43566 46-195): T1 sequence (O43566 46-195 C100S/C183S) with S55C, S138C
How it was run: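 Steady-state GTP hydrolysis by rate-altered double point-mutant Gαi1 was read by Transcreener GDP fluorescence polarization, with GTP conversion kept below 10% of maximum input. The E. coli-expressed, N-terminal His6-tagged wild-type RGS-boxes were RGS12 aa 695–843 and RGS14 aa 46–195.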

THP-1 cell line = assay: Cytotoxicity assays (CytoTox-Glo, CytoTox 96); assay type: cell-based; conditions: THP-1 cells, overnight, CytoTox-Glo and CytoTox 96
Procedure: To evaluate cellular toxicity of active compounds, we employed the immortalized human monocytic THP1-Dual cell line (InvivoGen) in two orthogonal cytotoxicity assays: ATP-dependent luminescence (CytoTox-Glo) and colorimetric lactate dehydrogenase (LDH) release (CytoTox 96). For each assay, compounds were serially diluted 2-fold starting at 250 μM and added to 96-well flat-bottom tissue culture plates (Thermo Scientific Nunc, Cat# 165306). THP1-Dual cells were then seeded at 20,000 to 30,000 cells per well in 100 μl RPMI 1640 media supplemented with 10% fetal bovine serum (Gibco). Plates were gently mixed and incubated overnight at 37 °C in a humidified 5% CO2 incubator. For the CytoTox-Glo assay (Promega, Cat# G9291), 50 μl of assay reagent was added to each well. Plates were mixed briefly, sealed, and incubated at room temperature for 15 min before reading luminescence on a TECAN Infinite M1000 Pro plate reader to quantify dead-cell signal. Subsequently, 50 μl of a digitonin-containing lysis solution was added to each well, followed by a second luminescence read after 15 min to assess total cell content. Percent cytotoxicity was calculated per manufacturer instructions. For the CytoTox 96 Non-Radioactive Cytotoxicity Assay (Promega, Cat# G1780), after overnight compound treatment, LDH release into the culture medium was measured by adding the provided substrate mix. Absorbance was read at 490 or 492 nm within 1 h of adding the stop solution. Assay optimization and data normalization were conducted according to the manufacturer’s technical manual.

[3] = Single-dose pharmacokinetic study, plasma and brain by LC-MS/MS; assay type: in vivo, male Swiss-Webster mice
Procedure: Single-dose pharmacokinetic (PK) studies were conducted under IACUC-approved protocols of the UNTSCP Preclinical Services laboratory at the University of North Texas Health Science Center. Male Swiss-Webster (CFW) mice (∼30 g; Charles River) were used in both studies, housed in groups of three per cage with ad libitum access to food and water and acclimated for a minimum of 3 days prior to dosing. Each compound was evaluated in a single-dose, time-course design using three mice per time point across seven collection points (0.25, 0.5, 1, 2, 4, 8, and 24 h post-dose). For Z56944652, mice received a single intraperitoneal (IP) dose of 10 mg/kg (0.2 ml at 1.5 mg/ml). At each designated time point, mice were euthanized via CO2 inhalation, and blood was collected by cardiac puncture for plasma isolation (K2-EDTA tubes). Brains were aseptically removed, flash-frozen, and stored at −80 °C. For Z55628018, due to poor detection in preliminary studies, the protocol was modified to enhance systemic exposure. Mice were pre-dosed orally with 50 mg/kg of the pan-CYP inhibitor 1-aminobenzotriazole (ABT; ref. ([67])) 2 h prior to administration of Z55628018. The compound was then administered via IP injection at a single dose of 30 mg/kg (0.2 ml at […]). Sample collection and processing procedures were identical to those described above for Z56944652.
LC-MS/MS analyses were performed at UNTHSC using an Agilent 1260 Infinity HPLC system coupled to an Agilent 6460 Triple Quadrupole mass spectrometer equipped with Jet Stream electrospray ionization (ESI) in positive ion mode. Separation was carried out on a Poroshell 120 EC-C18 column (50 × 3.0 mm, 2.7 μm particle size) maintained at 30 °C, with a mobile phase consisting of 0.1% formic acid in water (A) and 0.1% formic acid in acetonitrile (B) under a standard gradient elution at a flow rate of 0.5 ml/min. The injection volume was 2 μl. Multiple reaction monitoring (MRM) transitions were optimized for each compound: Z56944652 was detected at m/z 353.1 → 227/132/126, and Z55628018 at m/z 391 → 134.8/247.9/132/121. The internal standard, carbamazepine, was monitored at m/z 237.2 → 167. Plasma samples (30–40 μl) were extracted with 1000 to 1200 μl of either acetonitrile or a 50:50 acetonitrile:methanol mixture containing carbamazepine (150–500 ng/ml), followed by vortexing, sonication, centrifugation, and supernatant collection for injection. Brain samples were homogenized in organic solvent (2 ml per 0.5 g tissue), vortexed, centrifuged, and processed using the same analytical workflow. Matrix-matched calibration curves were prepared using blank plasma or brain extract and validated over appropriate dynamic ranges: 0.09 to 46 μg/ml (plasma) and 0.547 to 70 ng/ml (brain) for Z56944652; 0.1 to 12.5 μg/ml (plasma) and 0.1 to 3.13 ng/ml (brain) for Z55628018. […] Retention times were 5.0 ± 0.01 min for Z56944652 and 3.3 ± 0.01 min for Z55628018, with the internal standard eluting at 4.0 ± 0.02 min.

[4] = biological target: T3, human RGS12 RGS-box (wild-type) (Homo sapiens, UniProt O14924); assay: Transcreener GDP RGScreen fluorescence polarization assay of RGS12 RGS-box GAP activity on Gαi1(DM); assay type: biochemical; conditions: wild-type RGS12 RGS-box GAP activity, Gαi1(DM), read-out: RGS12 pIC50 (converted)
T3 construct: human RGS12 RGS-box (aa 695–843 of UniProt O14924); host or cells: E. coli
T3 sequence (O14924 695-843): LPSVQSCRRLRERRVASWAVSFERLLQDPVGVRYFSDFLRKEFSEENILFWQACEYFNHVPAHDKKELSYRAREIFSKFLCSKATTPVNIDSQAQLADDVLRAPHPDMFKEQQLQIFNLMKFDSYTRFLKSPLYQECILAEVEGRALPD
Excerpt: We previously described work with BellBrook Labs creating the Transcreener GDP RGScreen fluorescence polarization assay of steady-state GTP hydrolysis, leveraging a double point-mutant in the Gα enzyme to make GTP hydrolysis, rather than GDP (product) release, the rate-limiting step for multiple rounds of GTP conversion ([57], [59]). […] Titrating inputs of the double point-mutant (“DM”) Gαi1 and RGS-box recombinant proteins (Fig. S2, B and C) established a robust, medium-throughput assay for evaluating potential RGS14 and RGS12 inhibitors, with “assay quality” Z′ scores ([60]) above 0.76 for each target (Fig. S2D).
Reagents and protocols for the fluorescence anisotropy-based Transcreener GDP RGScreen assay using a rate-altered, double point-mutant, recombinant Gαi1 protein have been extensively described previously ([43], [44]); reactions were always performed so that total GTP converted over the time course was consistently less than 10% of reaction maximum input. Specific methods for its application in assessing RGS14 and RGS12 GAP activity are summarized as follows. Open-reading frames (ORFs) encoding wild-type versions of the human RGS14 RGS-box (aa 46–195 of UniProt O43566) and human RGS12 RGS-box (aa 695–843 of UniProt O14924) were each sub-cloned in-frame with an N-terminal hexahistidine (His6) expression tag in the plasmid pET30a, expressed in E. coli cultures, and then purified by nickel-nitriloacetate (Ni-NTA) and size-exclusion (Superdex 200) column chromatographies by GenScript using previously described methods ([35]). These recombinant His6-tag fusion proteins were stored at −80 °C in storage buffer (150 mM NaCl, 50 mM Tris-HCl pH 8.0, 10% glycerol) before thawing and use. Cysteine-less versions were similarly produced by ORF site-directed mutagenesis: for RGS14, codons for cysteine residues 47 and 130 (numbered as in PDB id 2JNU) were replaced with serine codons; for RGS12, codons for cysteines 4, 51, 78, and 134 (numbered in relation to PDB id 2EBZ) were replaced with serine codons. Use of Transcreener GDP-detection reagents to assess compound inhibition of Naegleria fowleri Gα7 protein GTPase activity ([83]) has previously been described ([84]).

[5] = wild-type RGS14 RGS-box GAP activity, Gαi1(DM), read-out: RGS14 pIC50 (converted)

SMILES	inhibitory activity on cysteine-free RGS14 RGS-box (in words) [1]	IC50 ([2]; wild-type RGS14 RGS-box, read-out: IC50 against RGS14 RGS-box GAP activity) [µM]	cytotoxicity (THP-1 cell line)	time of peak brain level ([3]; 10 mg/kg IP single dose, mice) [h]	peak brain level ([3]; 10 mg/kg IP single dose, mice, 1 h post-dose) [ng/g tissue]	peak CNS level (mean ± SD) ([3]; 10 mg/kg IP, three Swiss Webster mice, at 1 h) [ng/gram brain tissue]	Kp ([3]; male, Swiss-Webster (CFW), mouse, brain, 10 mg/kg IP, throughout the measured time course, read-out: brain-to-plasma concentration ratio (Kp))	IC50 [4] [µM]	Ratio (RGS14 pIC50 / RGS12 pIC50) [2]	IC50 [2, 5] [µM]	brain tissue concentration ([3]; 30 mg/kg IP after 50 mg/kg oral 1-aminobenzotriazole, any time point)	concentration at 1 h ([3]; male, Swiss-Webster (CFW), mouse, plasma, intraperitoneal, 30 mg/kg IP after 50 mg/kg oral 1-aminobenzotriazole, one of three mice, 1-h time point) [ng/mL]
CN1C(=O)[C@@]23C[C@]4([C@]56C[C@@]78SS[C@@](CO)(C(=O)N7[C@H]5Nc5ccccc56)N(C)C8=O)c5ccccc5N[C@@H]4N2C(=O)[C@]1(CO)SS3 [chaetocin, reference compound]	largely lost	0.32										
COc1ccccc1C1=CSc2nnc(COc3ccccc3)n2N1 [Z56944652, 6-(2-methoxyphenyl)-3-(phenoxymethyl)-5H-[1,2,4]triazolo[3,4-b][1,3,4]thiadiazine]			Neither triazolothiadiazine derivative was observed to induce significant cell death	1	~20	19.5 ± 0.3	~1	3.39	0.86	19.1		
C1=C(c2cc3ccccc3o2)Nn2c(nnc2C2COc3ccccc3O2)S1 (stereo not shown) [Z55628018, 6-(1-benzofuran-2-yl)-3-(2,3-dihydro-1,4-benzodioxin-2-yl)-5H-[1,2,4]triazolo[3,4-b][1,3,4]thiadiazine]			Neither triazolothiadiazine derivative was observed to induce significant cell death					5.75	0.92	14.5	No measurable concentrations; also recorded: undetectable	170
